Laboratory results published in US20080268533A1, “Methods and Compositions Utilizing Myc and Gsk3Beta to Manipulate the Pluripotency of Embryonic Stem Cells” (University of Georgia Research Foundation, Inc., priority 2004, published 2008).
Values belong to the compound of their own block, whether it stands above or below them. Residues, ends and D or L forms follow the SMILES beside them. *: point of attachment. Cbz = O=C(OCc1ccccc1)*

Experiments:
[1] = tested on: BG01 cells; experiment: LY 294002 induced definitive endoderm (DE) formation, Sox17 Q-PCR; format: cell-based, human; settings: BG01 on matrigel in MEF-CM, 60 μM LY 294002, BIO approx. 0.1-5 μM, MeBIO approx. 1-5, 3-4 days, Sox17 mRNA by Q-PCR
Description: Q-PCT was performed using relative quantitation using SYBR Green chemistry on the Rotor Gene 3000 instrument (Corbett Research) and a two-step RT-PCR format. Primers were designed to lie over exon-exon boundaries or span introns of at least 800 bp when possible, as this has been empirically determined to eliminate amplification from contaminating genomic DNA.
Total RNA was isolated using RNeasy (Qiagen) and quantitated using RiboGreen (Molecular Probes). Reverse transcription from 350-500 ng of total RNA was carried out using the iScript reverse transcriptase kit (BioRad), which contains a mix of oligo-dT and random primers. Each 20 μL reaction was subsequently diluted up to 100 μL total volume and 3 μL was used in each 10 μL Q-PCR reaction containing 400 nM forward and reverse primers and 5 μL 2×SYBR Green master mix (Qiagen). Two step cycling parameters were used employing a 5 second denature at 85-94° C. (specifically selected according to the melting temp of the amplicon for each primer set) followed by a 45 second anneal/extend at 60° C. Fluorescence data was collected during the last 15 seconds of each extension phase. A three point, 10-fold dilution series was used to generate the standard curve for each run and cycle thresholds (Ct's) were converted to quantitative values based on this standard curve. The quantitated values for each sample were normalized to housekeeping gene performance and then average and standard deviations were calculated for triplicate samples. At the conclusion of PCR cycling, a melt curve analysis was performed to ascertain the specificity of the reaction. A single specific product was indicated by a single peak at the Tm appropriate for that PCR amplicon.
Both Cyclophilin G and GUS were used to calculate a normalization factor for all samples. The use of multiple HGs simultaneously reduces the variability inherent to the normalization process and increases the reliability of the relative gene expression values (Vandesompele et al., 2002, Genome Biol., 3:RESEARCH0034). […]

[2] = tested on: GSK3β^S9 phosphorylation; format: cell-based, murine; settings: 6 hours, CA 2 nM, OA 2 nM
Description: MESCs and d2 EBs were treated for the short-term (6 hours) with phosphatase inhibitors of varying specificities.

[3] = molecular target: T1, GSK3β (Mus musculus, UniProt Q9WV60); experiment: GSK3β kinase assay on immunoprecipitate, MBP substrate; format: biochemical; settings: day 6 EB lysates, inhibitor 3 μM in ethanol
T1 construct: endogenous in cells; host or cells: day 6 embryoid bodies derived from mouse ES cells (D3 / R1-EGFP)
T1 sequence (Q9WV60 whole entry): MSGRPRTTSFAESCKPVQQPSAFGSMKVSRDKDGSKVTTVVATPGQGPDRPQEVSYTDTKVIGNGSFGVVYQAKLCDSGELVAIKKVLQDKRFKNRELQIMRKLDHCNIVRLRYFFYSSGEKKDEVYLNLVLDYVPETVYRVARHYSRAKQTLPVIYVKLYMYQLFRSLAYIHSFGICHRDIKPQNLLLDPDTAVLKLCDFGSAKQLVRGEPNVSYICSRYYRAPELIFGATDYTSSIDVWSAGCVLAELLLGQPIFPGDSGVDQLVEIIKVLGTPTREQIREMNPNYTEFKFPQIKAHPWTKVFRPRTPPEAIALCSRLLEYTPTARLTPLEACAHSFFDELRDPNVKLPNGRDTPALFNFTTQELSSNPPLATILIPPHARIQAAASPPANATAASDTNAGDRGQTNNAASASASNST
Description: Cell lysate (300 μg total protein) was adjusted to 1 mg/ml with cell lysis buffer and tumbled with 3 μg of primary antibody for 3 hours at 4° C. 30 μL of protein A Sepharose beads were added and tumbled for a further 1 hour at 4° C. The beads were washed three times with 1 ml of cold lysis buffer and once with 1 ml of kinase buffer (50 mM Hepes pH 7.5, 10 mM MgCl2, 1 mM DTT, 2.5 mM EGTA and protease inhibitor cocktail II (Calbiochem)). Immune complexes bound to the PAS beads were resuspended in 30 μL of kinase buffer with or without the addition of GSK3β inhibitor II (3 μM in ethanol, Calbiochem) or ethanol and incubated at 30° C. for 20 minutes. 10 μCi of [γ-^32P] ATP and 5 μg of myelin basic protein (MBP, Upstate Biotech) was added and the reactions incubated at 30° C. for a further 20 minutes. Reactions were terminated by the addition of 2×SDS load buffer, heated at 95° C. for 2 minutes and resolved on a 12% SDS-polyacrylamide gel. Kinase activities were quantitated by phosphorimager analysis.
A common mechanism that triggers c-myc degradation is through its phosphorylation at threonine 58 (T58) by GSK3β (Hoang et al., (1995) Mol. Cell. Biol., 15:4031-4042; Sears et al., (2000) Genes Dev., 14:2501-2514; Gregory et al., (2003) J. Biol. Chem., 278:51606-51612). […]

[4] = tested on: c-myc; experiment: c-myc protein stability assay with proteosome inhibitor (immunoblot); format: cell-based, mouse; settings: EBs (−LIF), MG132 5 μM, 3 hours prior to harvesting
Description: Cells were lysed by incubating for one hour on ice in lysis buffer consisting of 50 mM Hepes pH 7.5, 1 mM EDTA, 1 mM EGTA, 250 mM NaCl, 10% glycerol, 0.1% Tween-20, 10 μg/ml TPCK, 50 μg/ml TLCK, 170 μg/ml PMSF, 0.5 mg/ml leupeptin, 0.7 mg/ml pepstatin and phosphatase inhibitor cocktail II (Calbiochem) with occasional vortexing/pipetting. Whole cell extracts (20-40 μg total protein) were separated by 10% SDS-PAGE, transferred to nitrocellulose membranes (BioRad), blocked with 3% BSA in TBSE (Tris HCl pH 7.5, 150 mM NaCl, 2 mM EDTA and 0.1% NP40) and probed with the indicated antibodies at 4° C. The following antibodies were used: anti-c-myc (N-262; Santa Cruz), anti-Oct4 (N-19; Santa Cruz), anti-tubulin (Serotech), anti-HDAC1 (Zymed), anti-Cdk2 (M2; Santa Cruz), anti-GSK3β (Transduction Laboratories). The anti-HDAC1 antibody detects both HDAC1 and HDAC2 and accordingly, a doublet is seen by immunoblot analysis. An antibody that recognizes the T58 phosphorylated form of c-myc (T58/S62, Cell Signaling Technology) was used to evaluate the status of c-myc^T58. […]
If so, it was predicted that c-myc would have enhanced stability. To test this possibility, the stability of c-myc was determined in undifferentiated ES cells relative to other cell types where its stability is in the order of 30 minutes or less (Hann & Eisenman, (1984) Mol. Cell. Biol., 4:2486-2497). […]

[5] = tested on: GSK3β; experiment: GSK3β nuclear localization in EBs after OA treatment (staining); format: cell-based, murine; settings: OA added to EBs, short incubation; data not shown
Excerpt: A key issue relating to the understanding of self-renewal is determining how GSK3β activity is suppressed in ESCs but activated in cells committed to differentiate. […] The cytoplasmic localization of GSK3β in mESCs was corroborated by subcellular fractionation using hypotonic lysis (FIG. 3).
This mechanism accounts for the observed decline in phospho-S9 and activation of GSK3β that occurs during the early stages of differentiation. CA inhibits PP1 and PP2A in contrast to OA, which selectively targets PP2A. This implicated PP2A as a S9 phosphatase in this system. This is supported by experiments showing that PP2A complexes with GSK3 and c-myc in d2 EBs (FIG. 4C). […] While it is possible that nuclear GSK3β was degraded during OA treatment and nascent GSK3β retained in the cytoplasm, it is also likely that GSK3β is transported out of the nucleus in response to OA treatment since only short incubation periods were used and GSK3β is normally a stable protein. This would be consistent with a model where GSK3β localization is controlled by the phosphorylation status of S9. It is known that PP2A dephosphorylates S62 on c-myc, resulting in its degradation (Sears, (2004) Cell Cycle, 3(9):1133-7).

SMILES: O=C1Nc2cc(Br)ccc2/C1=C1/Nc2ccccc2/C1=N\O [BIO, 6-bromoindirubin-3′-oxime]
LY 294002 induced DE formation as determined by Sox17 expression [1]: blocks LY 294002 induced DE formation

SMILES: COC[C@@H]([C@H](O)[C@H](O)C(=O)NCC[C@H](C)c1nc(/C=C/C[C@@H]2O[C@]3(C[C@@H](O)[C@@H]2C)O[C@H]([C@H](C[C@H](O)[C@H](C)[C@H](O)[C@H](C)/C=C(C)/C(C)=C/C=C/C(C)=C\C#N)OC)[C@H](OP(=O)(O)O)C3(C)C)co1)N(C)C [Calyculin A]
GSK3β S9 phosphorylation in d2 EBs [2]: significantly increased S9 phosphorylation

immunoprecipitated GSK3β kinase activity [3]: sensitive
SMILES: Ic1cccc(CSc2nnc(-c3ccncc3)o2)c1 [GSK3β inhibitor II]

SMILES: CC(C)C[C@@H](C=O)NC(=O)[C@H](CC(C)C)NC(=O)[C@H](CC(C)C)NC(=O)OCc1ccccc1 [MG132] (Cbz-Leu-Leu-Leu-aldehyde)
turnover of c-myc protein following LIF withdrawal [4]: blocked

SMILES: CN1C(=O)/C(=C2\Nc3ccccc3\C2=N/O)c2ccc(Br)cc21 [MeBIO]
LY 294002 induced DE formation as determined by Sox17 expression ([1]; listed as MeBio): but not MeBio, blocks LY 294002 induced DE formation
LY 294002 induced DE formation as determined by Sox17 expression ([1]; listed as meBio): but not meBio, blocked LY 294002 induced DE formation

SMILES: C=C1[C@@H](O)[C@@H]2O[C@]3(CC[C@H](/C=C/[C@@H](C)[C@@H]4CC(C)=C[C@@]5(O[C@H](C[C@@](C)(O)C(=O)O)CC[C@H]5O)O4)O3)CC[C@H]2O[C@@H]1[C@@H](O)C[C@H](C)[C@H]1O[C@@]2(CCCCO2)CC[C@H]1C [okadaic acid]
GSK3β S9 phosphorylation in d2 EBs [2]: significantly increased S9 phosphorylation
GSK3β staining in the nucleus [5]: GSK3β staining in the nucleus disappeared
